# According to BindingDB's records for doi:10.1016/j.bmcl.2005.07.021 (Johnson & Johnson Pharmaceutical Research and Development, 2005):
# pIC50: −log10 of the molar value.
# Molecular target: Glycogen phosphorylase, muscle form (Oryctolagus cuniculus) (UniProt P00489)
# Assay: Inhibitory concentration against glycogen phosphorylase of rabbit muscle
# Chain of Glycogen phosphorylase, muscle form (Oryctolagus cuniculus) (P00489 whole entry, looked up): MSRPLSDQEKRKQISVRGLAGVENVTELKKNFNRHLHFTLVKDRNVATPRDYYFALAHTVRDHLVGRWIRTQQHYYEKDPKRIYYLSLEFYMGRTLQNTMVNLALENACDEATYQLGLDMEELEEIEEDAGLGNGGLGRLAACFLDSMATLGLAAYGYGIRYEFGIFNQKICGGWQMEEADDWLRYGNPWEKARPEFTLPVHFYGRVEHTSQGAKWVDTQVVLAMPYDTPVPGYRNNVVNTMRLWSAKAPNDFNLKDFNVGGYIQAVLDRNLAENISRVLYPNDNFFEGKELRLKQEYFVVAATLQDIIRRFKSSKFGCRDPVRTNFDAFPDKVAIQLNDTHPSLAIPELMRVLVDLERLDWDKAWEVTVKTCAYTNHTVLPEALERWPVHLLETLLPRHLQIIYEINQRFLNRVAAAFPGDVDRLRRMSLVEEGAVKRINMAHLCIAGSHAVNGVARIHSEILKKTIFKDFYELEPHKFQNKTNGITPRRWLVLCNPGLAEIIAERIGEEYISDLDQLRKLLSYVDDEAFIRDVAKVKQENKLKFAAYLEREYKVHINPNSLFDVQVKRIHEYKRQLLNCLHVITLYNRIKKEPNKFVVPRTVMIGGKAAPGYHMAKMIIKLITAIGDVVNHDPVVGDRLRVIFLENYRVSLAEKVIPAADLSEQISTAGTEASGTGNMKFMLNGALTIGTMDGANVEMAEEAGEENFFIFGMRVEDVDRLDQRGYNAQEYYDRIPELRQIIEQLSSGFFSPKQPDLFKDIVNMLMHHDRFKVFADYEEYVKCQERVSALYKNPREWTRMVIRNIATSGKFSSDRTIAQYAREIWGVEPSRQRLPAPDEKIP
row,SMILES,pIC50
1,CN(c1ccc(C(=O)Nc2ccon2)cc1)c1nc2ccccc2n(C)c1=O,< 5.00
2,Cn1c(=O)c(Nc2ccc(-c3ccc[nH]3)cc2)nc2ccccc21 [1-Methyl-3-[4-(1H-pyrrol-2-yl)-phenylamino]-1H-quinoxalin-2-one],5.60
3,"Cn1c(=O)c(Nc2ccc(NC(=O)c3ccc[nH]3)cc2)nc2ccccc21 [1H-Pyrrole-2-carboxylic acid [4-(4-methyl-3-oxo-3,4-dihydro-quinoxalin-2-ylamino)-phenyl]-amide]",< 5.00
4,Cn1c(=O)c(Nc2ccc(-c3ccoc3)cc2)nc2ccccc21 [3-(4-Furan-3-yl-phenylamino)-1-methyl-1H-quinoxalin-2-one],5.30
5,O=c1[nH]c2ccccc2nc1Nc1ccccc1 [3-Phenylamino-1H-quinoxalin-2-one],5.60
6,"CC(C)n1c(=O)c(Nc2ccc(C(=O)NCc3cccs3)cc2)nc2ccccc21 [4-(4-Isopropyl-3-oxo-3,4-dihydro-quinoxalin-2-ylamino)-N-thiophen-2-ylmethyl-benzamide]",< 5.00
7,"Cn1c(=O)c(Nc2ccc(C(=O)NCCc3cccs3)cc2)nc2ccccc21 [4-(4-Methyl-3-oxo-3,4-dihydro-quinoxalin-2-ylamino)-N-(2-thiophen-2-yl-ethyl)-benzamide]",< 5.00
8,"CN(C)CCn1c(=O)c(Nc2ccc(C(=O)NCc3cccs3)cc2)nc2ccccc21 [4-[4-(2-Dimethylamino-ethyl)-3-oxo-3,4-dihydro-quinoxalin-2-ylamino]-N-thiophen-2-ylmethyl-benzamide]",6.15
9,"O=C(NCc1cccs1)c1ccc(Nc2nc3ccccc3n(CCO)c2=O)cc1 [4-[4-(2-Hydroxy-ethyl)-3-oxo-3,4-dihydro-quinoxalin-2-ylamino]-N-thiophen-2-ylmethyl-benzamide]",6.49
10,O=C(O)Cn1c(=O)c(Nc2ccc(C(=O)NCc3cccs3)cc2)nc2ccccc21 [(2-Oxo-3-{4-[(thiophen-2-ylmethyl)-carbamoyl]-phenylamino}-2H-quinoxalin-1-yl)-acetic acid],5.24
11,"Cn1c(=O)c(Nc2ccc(NC(=O)c3ccco3)cc2)nc2ccccc21 [Furan-2-carboxylic acid [4-(4-methyl-3-oxo-3,4-dihydro-quinoxalin-2-ylamino)-phenyl]-amide]",5.60
12,"Cn1c(=O)c(Nc2cccc(NC(=O)c3ccno3)c2)nc2ccccc21 [Isoxazole-5-carboxylic acid [3-(4-methyl-3-oxo-3,4-dihydro-quinoxalin-2-ylamino)-phenyl]-amide]",< 5.00
